≈ marks a conversion by molar mass, not a printed value.

Among the data in article PMC11993615, “Design, synthesis and optimization of TarO inhibitors as multifunctional antibiotics against Methicillin-resistant Staphylococcus aureus” (npj Antimicrobials and Resistance, 2025) are MIC values, retold here.

The test system of the test is bacteria. The experiment in a line: MIC determination, positive control (strain not stated). As to conditions: 24 h.

As for `CN[C@H](CC(C)C)C(=O)N[C@H]1C(=O)N[C@@H](CC(N)=O)C(=O)N[C@H]2C(=O)N[C@H]3C(=O)N[C@H](C(=O)N[C@H](C(=O)O)c4cc(O)cc(O)c4-c4cc3ccc4O)[C@H](O)c3ccc(c(Cl)c3)Oc3cc2cc(c3O[C@@H]2O[C@H](CO)[C@@H](O)[C@H](O)[C@H]2O[C@H]2C[C@](C)(N)[C@H](O)[C@H](C)O2)Oc2ccc(cc2Cl)[C@H]1O` [vancomycin], 1 µg/mL (≈ 0.69 µM) was the least that counted as inhibitory (MIC).
